Experiments:
Format in all cases: in vivo
[1] = test system: Two-Spotted Spider Mite (Tetranychus urticae); experiment: Two-spotted spider mite (Tetranychus urticae) spray test on kidney bean; conditions: after 7 days
Protocol: (§1) Unless not mentioned otherwise, the test solutions were prepared as follows:
(§2) Solvent: 3 parts by weight Dimethylformamide
(§3) Emulsifier: 1 part by weight Polyoxyethylene alkyl phenyl ether
(§4) In order to make an appropriate formulation of an active compound, 1 part by weight of the active compound is mixed with the above mentioned amount of solvent and emulsifier and the mixture is diluted with water to a prescribed concentration. Ammonium salt or ammonium salt and penetration enhancer in a dosage of 1000 ppm are added to the desired concentration if necessary.
50 to 100 adult mites of Tetranychus urticae were inoculated to leaves of kidney bean at two-leaf stage planted in a pot of 6 cm in diameter. After one day, test solution at the appropriate concentration was sprayed thereon in a sufficient amount using a spray gun. After the spraying, the plant pot was placed inside a greenhouse, and after 7 days, the acaricidal activity was calculated. An acaricidal activity of 100% means that all mites were killed, whereas an acaricidal activity of 0% means that no mite was killed.

[2] = test system: Cucurbit Leaf Beetle (Aulacophora femoralis); experiment: Cucurbit leaf beetle (Aulacophora femoralis) cucumber leaf dip test; conditions: after 7 days; for pest or weed control at 20 ppm: Aulacophora, foliar, 168 h, read-out: insecticidal activity
Protocol: as §1, §2, §3, §4
Leaves of cucumber were immersed in the test solution at the appropriate concentration, and the leaves were dried in air. The leaves were then put in a plastic cup containing sterilized black soil and five Aulacophora femoralis at second instar larvae were released in the cup. The cups were placed in a temperature-controlled chamber at 25° C. After 7 days, the number of dead larvae was counted, and thus the insecticidal activity was calculated. An insecticidal activity of 100% means that all larvae were killed, whereas an insecticidal activity of 0% means that no larva was killed.

[3] = test system: Larvae of Spodoptera litura; experiment: Larvae of Spodoptera litura, method using artificial feeds; conditions: artificial feed, after 7 days
Protocol: as §1, §2, §3, §4
[A Method Using Artificial Feeds (Trade Name: Insecta LFM, Manufactured by Nosan Corporation)]
Powdery artificial feeds (2.3 g) were added to a plastic cup (diameter: 7.5 cm, height: 4 cm) to achieve a certain thickness. Water-diluted liquid (5 ml) of the active compound prepared above having predetermined concentration was evenly poured thereto and allowed to stand until the feeds were solidified. Five of the 3rd-instar larvae of Spodoptera litura were released in respective cups, and covered. The cups were put in a temperature controlled room at 25° C. and humidity of 50 to 60%, and the number of dead larvae after 7 days was determined to calculate the pesticidal ratio. 100% pesticidal ratio means death of all the larvae, while 0% pesticidal ratio means no dead larvae.

[4] = active compound concentration 100 ppm
[5] = active compound concentration 20 ppm
[6] = active compound concentration 4 ppm

Work on `CC(C)(C)OC(=O)NCc1ccc(N2CCC(c3cc(Cl)c(Cl)c(Cl)c3)(C(F)(F)F)C2O)cc1Cl` (mixture of isomers) [A1-68] yielded an acaricidal activity [1, 4] of 100%.

For `CC(C)(C)OC(=O)NCc1ccc(N2CCC(c3cc(C(F)(F)F)cc(C(F)(F)F)c3)(C(F)(F)F)C2O)cc1C(F)(F)F` (mixture of isomers) [A1-72], the insecticidal activity [2, 4] was 100% and the “insecticidal activity (pesticidal ratio)” value [3, 4] was 100%.

`CCC(=O)NCc1ccc(N2CCC(c3cc(Cl)cc(Cl)c3)(C(F)(F)F)C2O)cc1CC` (mixture of isomers) [A1-85] showed an acaricidal activity [1, 5] of 90%.

For `CC(=O)NCc1ccc(N2CCC(c3cc(C(F)(F)F)cc(C(F)(F)F)c3)(C(F)(F)F)C2O)cc1C` (mixture of isomers) [A1-183], the insecticidal activity [2, 5] was 100% and the “insecticidal activity (pesticidal ratio)” value [3, 5] was 100%.

`COCCC(=O)NCc1ccc(N2CCC(c3cc(C(F)(F)F)cc(C(F)(F)F)c3)(C(F)(F)F)C2O)cc1C` (mixture of isomers) [A1-190] gave an acaricidal activity [1, 5] of 100% and an insecticidal activity [2, 5] of 100%.

With `CCC(=O)NCc1ccc(N2CCC(c3cc(Br)cc(Br)c3)(C(F)(F)F)C2O)nc1C(F)(F)F` (mixture of isomers) [A3-178] the insecticidal activity [2, 5] was 100% and the “insecticidal activity (pesticidal ratio)” value [3, 5] was 100%.

`O=C(NCc1ccc(N2CCC(c3cc(Br)cc(Br)c3)(C(F)(F)F)C2O)nc1C(F)(F)F)C1CC1` (mixture of isomers) [A3-181] was tested, and the insecticidal activity [2, 5] was 100% and the “insecticidal activity (pesticidal ratio)” value [3, 5] was 100%.

`CS(=O)(=O)CC(=O)NCc1ccc(N2CCC(c3cccc(C(F)(F)F)c3)(C(F)(F)F)C2O)cc1C(F)(F)F` (racemic) [A1-303] gave an acaricidal activity [1, 5] of 100% and an insecticidal activity [2, 5] of 100%.

For `CC(=O)NCc1ccc(N2CCC(c3cccc(C(F)(F)F)c3)(C(F)(F)F)C2O)nc1C(F)(F)F` (racemic) [A3-221], the insecticidal activity [2, 5] was 100%.

Compound `O=C(CC1CC1)NCc1ccc(N2CCC(c3cccc(C(F)(F)F)c3)(C(F)(F)F)C2O)nc1C(F)(F)F` (racemic) [A3-226] has an acaricidal activity [1, 6] of 100%, an acaricidal activity [1, 5] of 100% and an insecticidal activity [2, 6] of 100%. The insecticidal activity [2, 5] was 100%.

Compound `CCC(=O)NCc1ccc(N2CCC(c3cc(Cl)cc(Cl)c3)(C(F)(F)F)C2O)cc1Cl` (stereo not shown) [A1-2] has an acaricidal activity [1, 5] of 100% and an insecticidal activity [2, 5] of 100%.

For `CC(=O)NCc1ccc(N2CCC(c3cc(Cl)cc(Cl)c3)(C(F)(F)F)C2O)cc1C(F)(F)F` (stereo not shown) [A1-34], the insecticidal activity [2, 5] was 100% and the “insecticidal activity (pesticidal ratio)” value [3, 5] was 100%.

`CC(C)(C)OC(=O)NCc1ccc(N2CCC(c3cc(C(F)(F)F)cc(C(F)(F)F)c3)(C(F)(F)F)C2O)cc1Cl` (stereo not shown) [A1-69, tert-butyl (4-{3-[3,5-bis(trifluoromethyl)phenyl]-2-hydroxy-3-(trifluoro-methyl)pyrrolidin-1-yl}-2-chlorobenzyl)carbamate] gave a pest or weed control at 20 ppm [2, 5] of 100%.

`CCC(=O)NCc1ccc(N2CCC(c3cc(F)cc(Cl)c3)(C(F)(F)F)C2O)cc1C(F)(F)F` (stereo not shown) [A1-239] gave an acaricidal activity [1, 5] of 100%.

For `CCC(=O)NCc1ccc(N2CCC(c3cc(Cl)cc(Cl)c3)(C(F)(F)F)C2O)cc1` (stereo not shown) [A1-373], the insecticidal activity [2, 5] was 100% and the “insecticidal activity (pesticidal ratio)” value [3, 5] was 100%.

With `CCC(=O)NCc1ccc(N2CCC(c3cc(C(F)(F)F)cc(C(F)(F)F)c3)(C(F)(F)F)C2O)cc1` (stereo not shown) [A1-395] the insecticidal activity [2, 5] was 100% and the “insecticidal activity (pesticidal ratio)” value [3, 5] was 100%.

`CC(=O)NCc1cc(F)c(N2CCC(c3cc(Cl)c(Cl)c(Cl)c3)(C(F)(F)F)C2O)cc1F` (stereo not shown) [A1-453] was tested, and the “insecticidal activity (pesticidal ratio)” value [3, 6] was 80%.

In the case of `O=C(NCc1cc(F)c(N2CCC(c3cc(Cl)c(Cl)c(Cl)c3)(C(F)(F)F)C2O)cc1F)C1CC1` (stereo not shown) [A1-457], the insecticidal activity [2, 6] is reported as 100% and the “insecticidal activity (pesticidal ratio)” value [3, 6] is reported as 100%.

With `O=C(NCc1cc(F)c(N2CCC(c3cc(Cl)c(Cl)c(Cl)c3)(C(F)(F)F)C2O)cc1Cl)C1CC1` (stereo not shown) [A1-481] the insecticidal activity [2, 6] was 100% and the “insecticidal activity (pesticidal ratio)” value [3, 6] was 100%.

With `Cc1c(CNC(=O)C2CC2)ccc(N2CCC(c3cc(Cl)c(Cl)c(Cl)c3)(C(F)(F)F)C2O)c1F` (stereo not shown) [A1-493] the insecticidal activity [2, 6] was 100% and the “insecticidal activity (pesticidal ratio)” value [3, 6] was 100%.

In the case of `CCC(=O)NCc1ccc(N2CCC(c3cc(Cl)cc(Cl)c3)(C(F)(F)F)C2O)nc1C(F)(F)F` (stereo not shown) [A3-2], the insecticidal activity [2, 5] is reported as 100% and the “insecticidal activity (pesticidal ratio)” value [3, 5] is reported as 100%.

With `CC(=O)NCc1ccc(N2CCC(c3cc(C(F)(F)F)cc(C(F)(F)F)c3)(C(F)(F)F)C2O)nc1C` (stereo not shown) [A3-122] the “insecticidal activity (pesticidal ratio)” value [3, 6] was 100% and the “insecticidal activity (pesticidal ratio)” value [3, 5] was 100%.

For `Cc1nc(N2CCC(c3cc(C(F)(F)F)cc(C(F)(F)F)c3)(C(F)(F)F)C2O)ccc1CNC(=O)C1CC1` (stereo not shown) [A3-126], the insecticidal activity [2, 5] was 100% and the “insecticidal activity (pesticidal ratio)” value [3, 5] was 100%.

With `Cc1nc(N2CCC(c3cc(C(F)(F)F)cc(C(F)(F)F)c3)(C(F)(F)F)C2O)ccc1CNC(=O)CS(C)(=O)=O` (stereo not shown) [A3-132] the “insecticidal activity (pesticidal ratio)” value [3, 6] was 100% and the “insecticidal activity (pesticidal ratio)” value [3, 5] was 100%.

With `CC(=O)NCc1ccc(N2CCC(c3cc(C(F)(F)F)cc(C(F)(F)F)c3)(C(F)(F)F)C2O)nc1Br` (stereo not shown) [A3-155] the insecticidal activity [2, 6] was 100%, the insecticidal activity [2, 5] was 100% and the “insecticidal activity (pesticidal ratio)” value [3, 6] was 100%. For the same compound, the “insecticidal activity (pesticidal ratio)” value [3, 5] was 100%.

`CCC(=O)NCc1ccc(N2CCC(c3cc(C(F)(F)F)cc(C(F)(F)F)c3)(C(F)(F)F)C2O)nc1Br` (stereo not shown) [A3-156] was tested, and the insecticidal activity [2, 5] was 100% and the “insecticidal activity (pesticidal ratio)” value [3, 5] was 100%.

In the case of `CCC(=O)NCc1ccc(N2CCC(c3cc(Cl)c(F)c(Cl)c3F)(C(F)(F)F)C2O)nc1Br` (stereo not shown) [A3-323], the insecticidal activity [2, 6] is reported as 100% and the “insecticidal activity (pesticidal ratio)” value [3, 6] is reported as 100%.

In the case of `O=C(NCc1cc(F)c(N2CCC(c3cc(Cl)c(Cl)c(Cl)c3)(C(F)(F)F)C2O)nc1Cl)C1CC1` (stereo not shown) [A3-370], the insecticidal activity [2, 6] is reported as 100% and the “insecticidal activity (pesticidal ratio)” value [3, 6] is reported as 100%.

In the case of `CC(=O)NCc1cc(F)c(N2CCC(c3cc(C(F)(F)F)cc(C(F)(F)F)c3)(C(F)(F)F)C2O)nc1Cl` (stereo not shown) [A3-377], the insecticidal activity [2, 6] is reported as 100% and the “insecticidal activity (pesticidal ratio)” value [3, 6] is reported as 100%.

For `C=C(C)N(Cc1ccc(N2CCC(c3cc(Cl)c(Cl)c(Cl)c3)(C(F)(F)F)C2O)nc1C(F)(F)F)C(=O)C1CC1` (stereo not shown) [A3-424], the insecticidal activity [2, 6] was 100% and the “insecticidal activity (pesticidal ratio)” value [3, 6] was 100%.

With `CN(C)CC(=O)NCc1cnc(N2CCC(c3cc(Cl)cc(Cl)c3)(C(F)(F)F)C2O)nc1C(F)(F)F` (stereo not shown) [A4-201] the “insecticidal activity (pesticidal ratio)” value [3, 4] was 100%.

`O=C(NCc1cnc(N2CCC(c3cc(Cl)cc(Cl)c3)(C(F)(F)F)C2O)nc1C(F)(F)F)C1CCCN1` (stereo not shown) [A4-202] was tested, and the “insecticidal activity (pesticidal ratio)” value [3, 4] was 100%.

With `CC(C)(C)OC(=O)N1CCCC1C(=O)NCc1cnc(N2CCC(c3cc(Cl)cc(Cl)c3)(C(F)(F)F)C2O)nc1C(F)(F)F` (stereo not shown) [A4-203] the “insecticidal activity (pesticidal ratio)” value [3, 4] was 80%.

With `O=C(NCc1cnc(N2CCC(c3cc(C(F)(F)F)cc(C(F)(F)F)c3)(C(F)(F)F)C2O)nc1Cl)C1CC1` (stereo not shown) [A4-252] the insecticidal activity [2, 6] was 100% and the “insecticidal activity (pesticidal ratio)” value [3, 6] was 100%.

With `N#CCC(=O)NCc1cnc(N2CCC(c3cc(Cl)cc(Cl)c3)(C(F)(F)F)C2O)nc1C(F)(F)F` (stereo not shown) [A4-435] the acaricidal activity [1, 5] was 100%.

`CCC(=O)NCc1ccc(N2CC(c3cc(C(F)(F)F)cc(C(F)(F)F)c3)(C(F)(F)F)CC2O)nc1C(F)(F)F` (stereo not shown) [A′3-24, N-{[6-{4-[3,5-bis(trifluoromethyl)phenyl]-2-hydroxy-4-(trifluoromethyl)pyrrolidin-1-yl}-2-(trifluoromethyl)pyridin-3-yl]methyl}propanamide] gave a pest or weed control at 20 ppm [2, 5] of 100% and a pest or weed control at 20 ppm ([3]; Spodoptera litura, 168 h, active compound concentration 20 ppm, read-out: insecticidal activity (pesticidal ratio)) of 100%.

In the case of `CCC(=O)NCc1ccc(N2CCC(c3cc(C(F)(F)F)cc(C(F)(F)F)c3)(C(F)(F)F)C2=O)cc1` (stereo not shown) [B1-96], the insecticidal activity [2, 5] is reported as 100% and the “insecticidal activity (pesticidal ratio)” value [3, 5] is reported as 100%.

For `CCC(=O)NCc1ccc(N2CC(c3cc(Cl)c(Cl)c(Cl)c3)(C(F)(F)F)CC2=O)nc1C` (stereo not shown) [C1-74], the “insecticidal activity (pesticidal ratio)” value [3, 5] was 100%.

`CCC(=O)NCc1ccc(N2CC(c3cc(Cl)cc(Cl)c3)(C(F)(F)F)CC2=O)nc1C(F)(F)F` (stereo not shown) [C3-2] was tested, and the “insecticidal activity (pesticidal ratio)” value [3, 5] was 100%.

In the case of `O=C(NCc1ccc(N2CC(c3cc(Cl)cc(Cl)c3)(C(F)(F)F)CC2=O)nc1C(F)(F)F)C1CC1` (stereo not shown) [C3-5], the “insecticidal activity (pesticidal ratio)” value [3, 5] is reported as 100%.

With `CCCC(=O)NCc1ccc(N2CCC(c3cc(Cl)c(Cl)c(Cl)c3)(C(F)(F)F)C2O)cc1C(F)(F)F` (stereo not shown) [a1-47] the “insecticidal activity (pesticidal ratio)” value [3, 5] was 100%.

`N#Cc1ccc(N2CCC(c3cc(Cl)c(F)c(Cl)c3F)(C(F)(F)F)C2O)cc1C(F)(F)F` (stereo not shown) [a1-48, 4-[3-(3,5-dichloro-2,4-difluorophenyl)-2-hydroxy-3-(trifluoromethyl)-pyrrolidin-1-yl]-2-(trifluoromethyl)benzonitrile] showed a pest or weed control at 20 ppm [2, 5] of 100%.
